From patent publication US20180064726A1, “Deuterium-Substituted Oxazepin Compounds” (Auspex Pharmaceuticals, Inc., priority 2016, published 2018)

Experiments:
[1] = tested on: patients with QT-3 (LQT3) syndrome; conditions: cited from earlier work
[2] = In vitro human liver microsomal stability assay; format: in vitro ADME; conditions: human liver microsomes 0.5 mg per mL protein, NADPH-generating system, 1 μM test compound, 37±1° C., 0-60 min; for half-life at 1 μM: degradation half-life; for CLint scaled at 1 μM: read-out: Clearance %
Method: In Vitro Liver Microsomal Stability Assay
Human liver microsomal stability assays were conducted at 0.5 mg per mL liver microsome protein with an NADPH-generating system consisting of NADP (1 mM, pH 7.4), […] (5 mM, pH 7.4), and glucose-6-phosphate dehydrogenase (1 unit/mL).
Test compounds were prepared as solutions in DMSO and added to the assay mixture (1 μM, final concentration in incubation) to be incubated at 37±1° C. Reactions were initiated with the addition of cofactor and were stopped at 0, 15, 30, 45, and 60 min after cofactor addition with stop reagent (0.2 mL acetonitrile). Samples were centrifuged (920×g for 10 min at 10° C.) in 96-well plates. Supernatant fractions were analyzed by LC-MS/MS to determine the percent remaining and estimate the degradation half-life of the test compounds.

| Compound | effect on QTc interval [1] | half-life at 1 μM [2] [h] | CLint scaled at 1 μM [2] [mL/min/kg] |
| --- | --- | --- | --- |
| 4-(pyrimidin-2-ylmethyl)-7-[4-(trifluoromethoxy)phenyl]-2,3,4,5-tetrahydro-1,4-benzoxazepin-5-one [Example 1] | shortening of the QTc interval | – | – |
| O=C1c2cc(-c3ccc(OC(F)(F)F)cc3)ccc2OCCN1Cc1ncccn1 [Example 1, 4-(pyrimidin-2-ylmethyl)-7-[4-(trifluoromethoxy)phenyl]-2,3,4,5-tetrahydro-1,4-benzoxazepin-5-one, reference compound] | – | 2.36 | 12.3 |
| [2H]C([2H])(c1ncccn1)N1CCOc2ccc(-c3ccc(OC(F)(F)F)cc3)cc2C1=O [Example 2, 4-(pyrimidin-2-ylmethyl-d2)-7-(4-(trifluoromethoxy)phenyl)-3,4-dihydrobenzo[f][1,4]oxazepin-5(2H)-one] | – | 9.52 | 3.04 |
| [2H]C1([2H])CN(Cc2ncccn2)C(=O)c2cc(-c3ccc(OC(F)(F)F)cc3)ccc2O1 [Example 3, 4-(pyrimidin-2-ylmethyl)-7-[4-(trifluoromethoxy)phenyl]-2,3,4,5-tetrahydro(2,2-d2)-1,4-benzoxazepin-5-one] | – | 4.62 | 6.27 |
| [2H]C1([2H])COc2ccc(-c3ccc(OC(F)(F)F)cc3)cc2C(=O)N1Cc1ncccn1 [Example 4, 4-(pyrimidin-2-ylmethyl)-7-(4-(trifluoromethoxy)phenyl)-3,4-dihydrobenzo[f][1,4]oxazepin-5(2H)-one-3,3-d2] | – | 2.01 | 14.4 |
| [2H]C1([2H])Oc2ccc(-c3ccc(OC(F)(F)F)cc3)cc2C(=O)N(Cc2ncccn2)C1([2H])[2H] [Example 5, 4-(pyrimidin-2-ylmethyl)-7-[4-(trifluoromethoxy)phenyl]-2,3,4,5-tetrahydro(2,2,3,3-d4)-1,4-benzoxazepin-5-one] | – | 1.35 | 21.5 |
| [2H]C([2H])(c1ncccn1)N1C(=O)c2cc(-c3ccc(OC(F)(F)F)cc3)ccc2OC([2H])([2H])C1([2H])[2H] [Example 6, 4-[pyrimidin-2-yl(d2)methyl]-7-[4-(trifluoromethoxy)phenyl]-2,3,4,5-tetrahydro(2,2,3,3-d4)-1,4-benzoxazepin-5-one] | – | 1.51 | 19.2 |
| [2H]c1c(-c2ccc(OC(F)(F)F)cc2)cc2c(c1[2H])OCCN(Cc1ncccn1)C2=O [Example 7, 4-(pyrimidin-2-ylmethyl)-7-[4-(trifluoromethoxy)phenyl]-2,3,4,5-tetrahydro(8,9-d2)-1,4-benzoxazepin-5-one] | – | 2.32 | 12.5 |
